Results as given in PubChem BioAssay (NCI).
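Cultured in 96-well plates, cells were exposed to test compound for 48 hours across five concentrations. GI50 = concentration required for 50% inhibition of growth. TGI denotes the concentration required for complete inhibition of growth.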

Experiments:
Test in all cases: growth of human tumour cells (NCI), 48 h
[1] = system: OVCAR-8 ovarian
[2] = system: PC-3 prostate
[3] = system: SF-268 CNS
[4] = system: MDA-MB-435
[5] = system: HCC-2998 colon
[6] = system: NCI/ADR-RES ovarian
[7] = system: M14 melanoma
[8] = system: SK-MEL-2 melanoma
[9] = system: HOP-62 NSCLC
[10] = system: A498 renal

`CCOc1ccc(N=Nc2ccc(-c3ccc(N=Nc4c(O)ccc5cc(S(=O)(=O)O)cc(S(=O)(=O)O)c45)cc3)cc2)cc1` was tested, and the TGI [1] was greater than 100 µM, the TGI [2] was greater than 100 µM and the TGI [3] was greater than 100 µM. The TGI [4] was greater than 100 µM, the TGI [5] was greater than 100 µM and the TGI [6] was greater than 100 µM. It also gave a TGI [7] greater than 100 µM, a TGI [8] greater than 100 µM and a TGI [9] greater than 100 µM.
`C[N+]1(C)C/C(=C\c2ccc(O)cc2)C(=O)/C(=C/c2ccc(O)cc2)C1` showed a TGI [1] greater than 100 µM, a TGI [3] greater than 100 µM and a TGI [5] greater than 100 µM. For the same molecule, the TGI [10] was greater than 100 µM, the TGI [7] was greater than 100 µM and the TGI [9] was greater than 100 µM.
`CC1(Cc2cc3c(cc2C2(c4ccc([N+](=O)[O-])cc4)OCCO2)OCO3)OCCO1` gave a TGI [1] greater than 100 µM, a TGI [2] greater than 100 µM and a TGI [3] greater than 100 µM. The TGI [4] was greater than 100 µM, the TGI [5] was greater than 100 µM and the TGI [10] was greater than 100 µM. For the same molecule, the TGI [6] was greater than 100 µM, the TGI [7] was greater than 100 µM and the TGI [8] was greater than 100 µM. For the same molecule, the TGI [9] was greater than 100 µM.
For `O=C(CSc1nc2ccc(I)cc2c(=O)n1Cc1ccccc1)NN1C(=O)CSC1c1ccccc1` (centres undefined), the TGI [1] was greater than 100 µM, the TGI [2] was greater than 100 µM and the TGI [3] was 79.1 µM. The TGI [4] was 69.6 µM, the TGI [5] was 53.2 µM and the TGI [6] was 57.2 µM. For the same molecule, the TGI [7] was 84.4 µM, the TGI [8] was 50.8 µM and the TGI [9] was 48.5 µM.
`CC(=O)c1c(C)cc2cccc(OC3OC(CO)C(O)C(O)C3O)c2c1O` (centres undefined) (tested in a mixture with another compound) showed a TGI [1] greater than 100 µM, a TGI [2] greater than 100 µM and a TGI [3] greater than 100 µM. It also gave a TGI [4] greater than 100 µM, a TGI [5] greater than 100 µM and a TGI [10] greater than 100 µM. For the same molecule, the TGI [6] was greater than 100 µM, the TGI [7] was greater than 100 µM and the TGI [8] was greater than 100 µM. It also gave a TGI [9] greater than 100 µM.
For `O=C(/C=C/c1ccc(O)cc1)c1cc(-c2cc(CCC(=O)c3ccc(O)cc3O)ccc2O)c(O)cc1O`, the TGI [1] was greater than 50 µM, the TGI [2] was greater than 50 µM and the TGI [3] was greater than 50 µM. For the same molecule, the TGI [4] was greater than 50 µM, the TGI [10] was greater than 50 µM and the TGI [6] was greater than 50 µM. It also gave a TGI [7] greater than 50 µM, a TGI [8] greater than 50 µM and a TGI [9] greater than 50 µM.
`O=C1O/C(=C\C=C\CO)C=C1/C=C/CO` showed a TGI [1] of 38.6 µM, a TGI [2] of 42.5 µM and a TGI [3] of 58.2 µM. The TGI [4] was greater than 100 µM, the TGI [6] was 89.1 µM and the TGI [7] was 43.1 µM. For the same molecule, the TGI [8] was 43.4 µM.
With `O=S(=O)([O-])[O-].[Fe+2].[OH2+]c1c(Cl)cc(Cl)cc1/C=N/Nc1ccccn1` the TGI [1] was 2.94 µM, the TGI [3] was 1.94 µM and the TGI [5] was 5.13 µM. The TGI [10] was 4.5 µM, the TGI [7] was 7.44 µM and the TGI [9] was 3.56 µM.
Molecule `Cc1cc(C)nc(NS(=O)(=O)c2ccc(Nc3nnc(/C=C/c4c(O)ccc5ccccc45)c(=O)n3N)cc2)n1` has a TGI [1] of 87.2 µM, a TGI [3] greater than 100 µM and a TGI [4] of 57.6 µM. It also gave a TGI [6] of 58.3 µM, a TGI [7] of 58.5 µM and a TGI [9] greater than 100 µM.
`COc1cc(O)c2c(=O)c(OC)c(-c3ccc(OC)c(OC)c3)oc2c1.[Zn+2]` was tested, and the GI50 [1] was 13.2 µM, the TGI [1] was greater than 100 µM and the GI50 [2] was 9.18 µM. For the same molecule, the TGI [2] was greater than 100 µM, the GI50 [3] was 12.9 µM and the TGI [3] was greater than 100 µM. For the same molecule, the GI50 [5] was 43.1 µM, the TGI [5] was greater than 100 µM and the GI50 [6] was 14.9 µM. It also gave a TGI [6] greater than 100 µM, a GI50 [7] of 45.4 µM and a TGI [7] greater than 100 µM. It also gave a GI50 [9] of 2.87 µM and a TGI [9] of 11.4 µM.
`Nc1ccc(S(=O)(=O)NCCS(=O)(=O)O)cc1` was tested, and the TGI [1] was greater than 100 µM, the TGI [2] was greater than 100 µM and the TGI [3] was greater than 100 µM. It also gave a TGI [4] greater than 100 µM, a TGI [10] greater than 100 µM and a TGI [6] greater than 100 µM. For the same molecule, the TGI [7] was greater than 100 µM, the TGI [8] was greater than 100 µM and the TGI [9] was greater than 100 µM.
For `CC(=O)[C@]12OC(=O)C3=C1[C@H](CC[C@@H]3C)[C@@H](C)C[C@H]2C=C(C)C`, the TGI [1] was 17 µM, the TGI [2] was 21.1 µM and the TGI [3] was 15.8 µM. It also gave a TGI [4] of 16 µM, a TGI [10] of 15.1 µM and a TGI [6] of 17.7 µM. For the same molecule, the TGI [7] was 16.7 µM, the TGI [8] was 14.7 µM and the TGI [9] was 16 µM.
For `O=C(c1ccc(Cl)c(Cl)c1)N(C(=O)N1CCN(c2ccccc2)CC1)S(=O)(=O)c1ccccc1`, the TGI [1] was 83.5 µM, the TGI [2] was 93.5 µM and the TGI [3] was greater than 100 µM. For the same molecule, the TGI [4] was greater than 100 µM, the TGI [5] was greater than 100 µM and the TGI [10] was greater than 100 µM. The TGI [6] was greater than 100 µM, the TGI [7] was greater than 100 µM and the TGI [8] was 48.2 µM. The TGI [9] was greater than 100 µM.
`Cc1c(-c2ccccc2)c(C#N)c2nnn(C)c(=O)n12` showed a TGI [1] greater than 100 µM, a TGI [2] greater than 100 µM and a TGI [3] greater than 100 µM. For the same molecule, the TGI [4] was greater than 100 µM, the TGI [5] was greater than 100 µM and the TGI [10] was greater than 100 µM. The TGI [6] was greater than 100 µM, the TGI [7] was greater than 100 µM and the TGI [8] was greater than 100 µM. It also gave a TGI [9] greater than 100 µM.
`CC(=O)Oc1cc(/C=C/c2ccc(O)cc2)cc(OC(C)=O)c1` gave a TGI [1] greater than 100 µM, a TGI [2] greater than 100 µM and a TGI [3] greater than 100 µM. The TGI [4] was greater than 100 µM, the TGI [10] was 85.5 µM and the TGI [6] was 51.9 µM. For the same molecule, the TGI [7] was greater than 100 µM, the TGI [8] was greater than 100 µM and the TGI [9] was greater than 100 µM.
Work on `CCCCCCCCc1ccc(CCC(N)(CO)CO)cc1` yielded a GI50 [2] of 1.75 µM, a TGI [2] of 3.41 µM and a GI50 [4] of 1.82 µM. It also gave a TGI [4] of 3.45 µM, a GI50 [5] of 1.57 µM and a TGI [5] of 2.96 µM. It also gave a GI50 [10] of 3.34 µM, a TGI [10] of 22.6 µM and a GI50 [8] of 2.06 µM. It also gave a TGI [8] of 3.76 µM, a GI50 [9] of 1.69 µM and a TGI [9] of 3.08 µM.
`CC(=O)C(N=NC1CCC(S(=O)(=O)NB2N=CS2)CC1)C(=O)Nc1ccccc1C` (centres undefined) was tested, and the TGI [1] was 34.1 µM, the TGI [3] was 30.8 µM and the TGI [5] was 31.4 µM. For the same molecule, the TGI [10] was 33.6 µM, the TGI [7] was 35.5 µM and the TGI [8] was 33.3 µM. The TGI [9] was 34.7 µM.
In the case of `Cc1ccccc1C1CC(=O)CC(c2ccccc2C)C12C(=O)NC(=S)NC2=O` (centres undefined), the TGI [2] is reported as 70 µM, the TGI [3] is reported as greater than 100 µM and the TGI [4] is reported as 62.4 µM. The TGI [5] was 25.2 µM, the TGI [10] was 72.2 µM and the TGI [6] was greater than 100 µM. The TGI [7] was 91.8 µM, the TGI [8] was 40.3 µM and the TGI [9] was greater than 100 µM.
`NC(=S)N/N=C1\CC(c2ccccc2)Nc2ccccc21` (centres undefined) showed a TGI [1] greater than 100 µM, a TGI [3] greater than 100 µM and a TGI [10] of 68.2 µM. It also gave a TGI [7] greater than 100 µM.
Work on `C[N+]1(c2ccccc2)C=C(c2ccccc2)SC1=S` (centres undefined) yielded a TGI [1] greater than 100 µM, a TGI [2] greater than 100 µM and a TGI [3] greater than 100 µM. It also gave a TGI [4] greater than 100 µM, a TGI [5] greater than 100 µM and a TGI [10] of 46.7 µM. It also gave a TGI [6] greater than 100 µM, a TGI [7] greater than 100 µM and a TGI [8] greater than 100 µM. It also gave a TGI [9] greater than 100 µM.
Work on `Cc1ncc(COP(=O)(O)O)c(C)c1O` yielded a TGI [1] greater than 100 µM, a TGI [2] greater than 100 µM and a TGI [3] greater than 100 µM. It also gave a TGI [4] greater than 100 µM, a TGI [10] greater than 100 µM and a TGI [6] greater than 100 µM. It also gave a TGI [7] greater than 100 µM, a TGI [8] greater than 100 µM and a TGI [9] greater than 100 µM.
`CC(C)=CC[C@H]1C[C@@]2(CC=C(C)C)C(=O)/C(=C(/O)c3ccccc3)C(=O)[C@](CC=C(C)C)(C2=O)C1(C)C` gave a TGI [1] of 35 µM, a TGI [2] of 19.3 µM and a TGI [3] of 39.4 µM. It also gave a TGI [4] of 26.2 µM, a TGI [5] of 14.4 µM and a TGI [10] of 26.3 µM. For the same molecule, the TGI [6] was 42.2 µM, the TGI [7] was 25.2 µM and the TGI [8] was 8.24 µM. It also gave a TGI [9] of 29.3 µM.
